The values that follow come from patent publication US20120004199A1, “SCAFFOLDS” (priority 2009, published 2012).

One data set relates to NF-κB/p65. The experiment in a line: NF-κB/p65 activation immunolabelling in 2D fibroblast cultures stimulated with LPS or TNF-α. The class given is cell-based, human. The note with it: for effect on LPS induced NF-κB activation / effect on TNF induced NF-κB activation: 10^−4 and 10^−3M; for effect on LPS induced NF-κB activation: LPS 100 ng/mL; for effect on TNF induced NF-κB activation: TNF-α 1000 U/mL. As to the method: LPS from E. coli serotype O111:B4 (Sigma-Aldrich) at 100 ng/mL or TNF-α (Sigma-Aldrich) at 1000 U/mL was used as a positive control for activation of NF-κB in fibroblasts. In preliminary experiments, Ibuprofen (10^−3 and 10^−4 M, sodium salt and isomer mixture; Sigma-Aldrich, UK) was used to downregulate NF-κB activation. Then the 10% Ibuprofen loaded PLGA scaffolds (75/25, 50/50 and a 1:1 blend of these two) were examined. Negative controls were produced by incubating cells in normal DMEM. All experiments were performed in triplicate.
Following the Ibuprofen treatments, monolayers were washed in PBS and the cells were fixed in 10% formalin (500 μL per well) for 30 minutes. Cell monolayers were washed a further three times in PBS, prior to cell permeabilisation with 0.1% Triton X100 for 20 minutes. Subsequently, cells were washed three times with PBS. Unreactive binding sites were blocked by adding a 5% dried milk powder solution to each well for 1 hour. A further three washes in PBS were performed prior to incubation with the first antibody solution. The first antibody (rabbit polyclonal antihuman IgG NF-κB p65 C-20, Santa Cruz Biotechnology Inc., CA) was added at a concentration of 1:100 in 1% PBS-dried milk powder. Cells were incubated in the antibody solution at 4° C. for 18 hours. The cells were washed three more times in PBS. Afterwards, cells were incubated with biotinylated goat anti-rabbit (1:1000) (Vector Laboratories, CA) in 1% PBS-milk powder. The cells were then washed a further three times in PBS. Streptavidin-FITC (Vector Laboratories, CA) conjugate was then added to the wells at a concentration of 1:100 in PBS. A further three washes in PBS were performed. After this time, the fluorescent staining were visualised using an AXON image express system (Axon Instruments/Molecular Devices, Union City, Calif.). Briefly, fluorescence micrographs of immunolabelled samples were taken using epifluorescent illumination at λex 495 nm λem 515 nm (for FITC visualisation); λex 358 nm λem 461 nm (for DAPI visualisation). DAPI fluorescence was used to identify nuclear position. The boundary between nucleus and cytoplasm was delimited by analysis software (ImageXpress Console 1.0) using DAPI micrographs in a sample of at least 100 cellular counts per visual field. Within the defined region, the intensity of FITC (NF-κB/p65) labelling was used to calculate activation for each micrograph and sample. […] The analysis of the micrographs was done in triplicate.

A further data set concerns human fibroblast (HDF). The data set can be described thus: MTT-ESTA assay of cell metabolic activity, 2D HDF cultures. The format is cell-based. The note with it: for % Viability: 24 h exposure, HDF; for concentration showing a cytotoxic response: fibroblast viability. As to the method: (§1) Normal human fibroblasts were isolated and cultured as described previously (Ralston et al., 1997). […] Keratinocytes were cultured in Dulbecco's modified Eagle's medium (DMEM) supplemented with 10% (v/v) foetal calf serum (FCS), 2 mM glutamine, 0.625 μg/ml amphotericin B, 100 IU/ml penicillin and 100 μg/ml streptomycin.

Assay in data set [1]: as above
The following applies: human, normal human dermal fibroblasts (HDF), 2D monolayer culture, 24 h exposure, HDF. The format is cell-based, human. As to the method: as §1

As to `CC(C)Cc1ccc(C(C)C(=O)O)cc1` (racemic) [Ibuprofen isomer mixture, 2-(4-isobutylphenyl)propionic acid], in the data set on NF-κB/p65, the “effect on LPS induced NF-κB activation” value is on record as “significantly reducing the response”. Also, in the data set on NF-κB/p65, the “effect on TNF induced NF-κB activation” value is on record as “significantly reducing the response”. For the same compound, the “% Viability” value is 7.20% in the data set on human fibroblast (HDF) (Treatment 10^−2); 101.11% in the data set on human fibroblast (HDF) (Treatment 10^−3); 108.56% in the data set on human fibroblast (HDF) (Treatment 10^−4); 111.80% in the data set with human fibroblast (HDF) (Treatment 10^−5); 109.43% in the data set with human fibroblast (HDF) (Treatment 10^−6). Further, in the data set on human fibroblast (HDF), the “concentration showing a cytotoxic response” value is on record as 10^−2 M.

Usually viability stands for a read-out of living cells in per cent, often relative to untreated cells. For the compound `CC(C)Cc1ccc(C(C)C(=O)[O-])cc1.[Na+]` (centres unmarked) [Ibuprofen Sodium Salt], the “effect on LPS induced NF-κB activation” value in the data set with NF-κB/p65 is given as “significantly reducing the response”. For the same compound, in the data set with NF-κB/p65, the “effect on TNF induced NF-κB activation” value is given as “significantly reducing the response”. Also, the viability at 24 h in data set [1] (Treatment 10^−3) came out at 90.3%; in data set [1] (Treatment 10^−4), 98.2%; in data set [1] (Treatment 10^−5), 100%; in data set [1] (Treatment 10^−6) it was 102%. In the data set with human fibroblast (HDF) (Treatment 10^−2), the “% Viability” value came to 38.25%. Besides, in the data set with human fibroblast (HDF), the “concentration showing a cytotoxic response” value is given as 10^−2 M.

As for TNF-α, the “activation of NF-κB” value with NF-κB/p65 (stimulus alone, LPS 100 ng/mL or TNF-α 1000 U/mL) was determined as 80%.
